Laboratory results from ChEMBL document CHEMBL1151091, “Aminomethylthiophene-2-carboxylic acids as dipeptide mimetic in new growth hormone secretagogues” (Bioorg Med Chem Lett, 1997).
Square brackets hold non-standard residues; d marks the D form. Peptide text beside a SMILES is read from it. d2Nal = N[C@H](Cc1ccc2ccccc2c1)C(=O)O; 3Amb = NCc1cccc(C(=O)O)c1

Organism: Rattus norvegicus
Test: In vitro release of growth hormone by rat pituitary assay
Type: functional

SMILES: NCCCC[C@H](NC(=O)[C@@H](Cc1ccccc1)NC(=O)[C@@H](Cc1ccc2ccccc2c1)NC(=O)c1ccc(CN)s1)C(N)=O
- EC50: 210 nM

SMILES: NCCCC[C@H](NC(=O)[C@@H](Cc1ccccc1)NC(=O)[C@@H](Cc1ccc2ccccc2c1)NC(=O)c1ccccc1CN)C(N)=O
- EC50: 85 nM

SMILES: NCCCC[C@H](NC(=O)[C@@H](Cc1ccccc1)NC(=O)[C@@H](Cc1ccc2ccccc2c1)NC(=O)c1cc(CN)cs1)C(N)=O
- EC50: 675 nM

SMILES: C[C@H](N)C(=O)N[C@@H](Cc1c[nH]cn1)C(=O)N[C@H](Cc1ccc2ccccc2c1)C(=O)N[C@H](Cc1ccccc1)C(=O)N[C@@H](CCCCN)C(N)=O
- EC50: 6 nM

SMILES: NCCCC[C@H](NC(=O)[C@@H](Cc1ccccc1)NC(=O)[C@@H](Cc1ccc2ccccc2c1)NC(=O)c1sccc1CN)C(N)=O
- EC50: 27 nM

SMILES: NCCCC[C@H](NC(=O)[C@@H](Cc1ccccc1)NC(=O)[C@@H](Cc1ccc2ccccc2c1)NC(=O)c1cccc(CN)c1)C(N)=O (H-[3Amb][d2Nal][dF]K-NH2)
- EC50: 7 nM
